Where a name gives a salt, the structure may show the parent alone.
Compound	melting point
Clc1nc2ccc(OCCCCN3CCN(c4ccccc4)CC3)cc2s1 (as salt: oxalate) [Compound 20, 2-chloro-6-(4-(4-phenylpiperazin-1-yl)butoxy)benzothiazole dihydrogenoxalate]	155 to 157 °C (dec.)
COc1ccccc1N1CCN(CCCCOc2ccc3nc(N)sc3c2)CC1 (as salt: oxalate) [Compound 9, 2-amino-6-(4-(4-(2-methoxyphenyl)piperazin-1-yl)butoxy) benzothiazole dihydrogenoxalate]	147 to 150 °C (dec.)
COc1ccccc1N1CCN(CCOc2ccc3ncsc3c2)CC1 (as salt: oxalate) [Compound 4, 6-(2-(4-(2-methoxyphenyl)piperazin-1-yl)ethoxy)benzothiazole hydrogenoxalate]	183 °C
COc1ccccc1N1CCN(CCCCOc2ccc3ncsc3c2)CC1 (as salt: salt) [Compound 10, 6-(4-(4-(2-methoxyphenyl)piperazin-1-yl)butoxy) benzothiazole hydrogenoxalat]	159 to 165 °C (dec.)
COc1ccccc1N1CCN(CCCOc2ccc3nc(Cl)sc3c2)CC1 (as salt: oxalate) [Compound 8, 2-chloro-6-(3-(4-(2-methoxyphenyl)piperazin-1-yl)propoxy)benzothiazole hydrogenoxalate]	188 °C
Clc1nc2ccc(OCCCN3CCN(c4ccccc4)CC3)cc2s1 (as salt: oxalate) [Compound 17, 2-chloro-6-(3-(4-phenylpiperazin-1-yl)propoxy)benzothiazole dihydrogenoxalate]	159 to 161 °C (dec.)
Clc1nc2ccc(OCCN3CCN(c4ccccc4)CC3)cc2s1 (as salt: oxalate) [Compound 14, 2-chloro-6-(2-(4-phenylpiperazin-1-yl)ethoxy)benzothiazole dihydrogenoxalate]	168 °C (dec.)
COc1ccccc1N1CCN(CCOc2ccc3nc(Cl)sc3c2)CC1 (as salt: oxalate) [Compound 5, 2-chloro-6-(2-(4-(2-methoxyphenyl)piperazin-1-yl)ethoxy)benzothiazole hydrogenoxalate]	183 to 185 °C (dec.)
COc1ccccc1N1CCN(CCOc2ccc3nc(N)sc3c2)CC1 (as salt: oxalate) [Compound 3, 2-amino-6-(2-(4-(2-methoxyphenyl)piperazin-1-yl)ethoxy)benzothiazole trihydrogenoxalate]	162 to 163 °C (dec.)
c1ccc(N2CCN(CCCCOc3ccc4ncsc4c3)CC2)cc1 (as salt: oxalate) [Compound 19, 6-(4-(4-phenylpiperazin-1-yl)butoxy)benzothiazole dihydrogenoxalate]	168 °C (dec.)
COc1ccccc1N1CCN(CCCCOc2ccc3nc(Cl)sc3c2)CC1 (as salt: oxalate) [Compound 11, 2-chloro-6-(4-(4-(2-methoxyphenyl)piperazin-1-yl)butoxy)benzothiazole hydrogenoxalate]	126 °C
COc1ccccc1N1CCN(CCCOc2ccc3ncsc3c2)CC1 (as salt: salt) [Compound 7, 6-(3-(4-(2-methoxyphenyl)piperazin-1-yl)propoxy) benzothiazole hydrogenoxalat]	168 to 170 °C (dec.)
c1ccc(N2CCN(CCOc3ccc4ncsc4c3)CC2)cc1 (as salt: oxalate) [Compound 13, 6-(2-(4-phenylpiperazin-1-yl)ethoxy)benzothiazole hydrogenoxalate]	215 °C (dec.)
c1ccc(N2CCN(CCCOc3ccc4ncsc4c3)CC2)cc1 (as salt: oxalate) [Compound 16, 6-(3-(4-phenylpiperazin-1-yl)propoxy)benzothiazole hydrogenoxalate]	208 to 211 °C (dec.)
